Measured values as given in the METLIN SMRT retention time set (Domingo-Almenara et al. 2019).

Experiment: gradient 5% acetonitrile 3 min, to 50% in 2 min, to 85% in 15 min, held 3 min, 100 µL/min
Details: column: Zorbax Extend-C18 2.1 x 50 mm; eluents: water / acetonitrile, 0.1% formic acid
Method in brief: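 Using water and acetonitrile that each contained 0.1% formic acid, mixtures of ~100 pure standards were separated at 100 μL/min on a Zorbax Extend-C18 column (2.1 × 50 mm, 1.8 μm). The HPLC fed a quadrupole time-of-flight mass spectrometer working in positive and negative ionization mode, with dead and dwell volumes of 40 μL and 900 μL. Data were acquired over 3 months. Retention time was read from computationally picked adduct peaks after manual inspection of each.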

CCCN1C(=O)c2cc(S(=O)(=O)Nc3ccc(C)cc3)ccc2Oc2cccnc21
RP-LC retention time: 1100 s

CCC(C(=O)NCCc1c[nH]c2ccccc12)n1c2ccccc2c2cnn(C)c(=O)c21 (stereo not drawn)
RP-LC retention time: 916 s

CCOC(=O)CNC(=O)NCC(=O)N1CCc2ccccc21
RP-LC retention time: 658 s

Cc1ccc(CN2CC(Oc3ccc(-c4noc(C5CCOCC5)n4)cc3)C2)o1
RP-LC retention time: 686 s

FC1(F)C[C@@H](CN2CCOCC2)N(Cc2cn[nH]c2-c2ccccc2)C1
RP-LC retention time: 765 s

O=C(O)c1cccc2c1CCN2C(=O)c1ccc(F)cc1
RP-LC retention time: 761 s

CCCN1C(=O)Cc2cc(C(=O)N3CCN(c4ccc(OC)cc4)CC3)ccc21
RP-LC retention time: 748 s

Cc1nnc(SCCC(=O)Nc2ccc(F)cc2)s1
RP-LC retention time: 692 s

Cc1nn(C)c(C)c1CCNC(=O)Nc1ccccc1Br
RP-LC retention time: 651 s

COc1ccc(OC)c(NC(=O)Cc2csc3nc(-c4ccc(OC)c(OC)c4)cn23)c1
RP-LC retention time: 738 s

COc1cccc(-n2c(N3CCCC(C(=O)Nc4ccc(Cl)cc4)C3)nc3ccsc3c2=O)c1 (stereo not drawn)
RP-LC retention time: 1020 s

CCc1ccc2nc(Nc3ncc4c(n3)CC(c3ccccc3)CC4=O)nc(C)c2c1 (stereo not drawn)
RP-LC retention time: 636 s

CC(=O)Nc1cccc(-c2nc(-c3ccc4oc(-c5ccccc5)nc4c3)no2)c1
RP-LC retention time: 769 s

CS(=O)(=O)N(Cc1ccccn1)C1CN(C(=O)CCc2nc3ccccc3s2)C1
RP-LC retention time: 656 s

COc1ccc(C(C)NC(=O)Cn2c(C)cc(-c3nnc(C4CCC4)o3)c2C)cc1 (stereo not drawn)
RP-LC retention time: 866 s

CCCN(C(=O)Cc1ccc(OC)cc1)c1nc(-c2ccccc2)cs1
RP-LC retention time: 1420 s

c1ccc(-c2nc(-c3cnccn3)no2)c(OC2CNC2)c1
RP-LC retention time: 583 s

CC(C)Cc1cc(-c2nn3c(COc4ccc(Br)cc4)nnc3s2)n[nH]1
RP-LC retention time: 1030 s

CCOc1cccc(-c2noc(CN3C(=O)COc4cc(Cl)ccc43)n2)c1
RP-LC retention time: 1180 s

O=C(NC1CCCCC1)C1CCN(Cc2cc3ccccc3n2Cc2cccc(Cl)c2)CC1
RP-LC retention time: 847 s

Cc1sc(NC(=O)c2cccs2)nc1-c1ccc2c(c1)NC(=O)C(C)O2 (stereo not drawn)
RP-LC retention time: 883 s

COc1cc(NC(=O)NCCc2nc3cccnc3n2-c2ccccc2)cc(OC)c1OC
RP-LC retention time: 682 s

CCCCS(=O)(=O)N1C[C@@H](COC)[C@H](C(=O)NC)C1
RP-LC retention time: 626 s

Cc1cccc(NC(=O)N2CCC(N3CCN(Cc4ccccc4)C3=O)CC2)c1
RP-LC retention time: 853 s

CCCNC(=O)C1CCN(c2ccc(SCC(=O)Nc3cc(OC)ccc3OC)nn2)CC1
RP-LC retention time: 662 s

O=C(CSc1ccc(F)cc1)Nc1ccc2c(c1)N(C(=O)c1ccccc1)CCC2
RP-LC retention time: 874 s

C[C@H](CCC(=O)NCCS(=O)(=O)O)[C@H]1CC[C@H]2[C@@H]3[C@H](O)C[C@@H]4C[C@H](O)CC[C@]4(C)[C@H]3C[C@H](O)[C@]12C
RP-LC retention time: 665 s

O=C(c1cnn2c(-c3ccc4c(c3)OCO4)ccnc12)N1CCN(c2ccccc2)CC1
RP-LC retention time: 864 s

Cc1cc(-c2nnc(-c3ccc(F)cc3)o2)c(C)n1CC(=O)NCc1cc(F)cc(F)c1
RP-LC retention time: 992 s

CNC(=O)c1nc(C(C)(C)NC(=O)c2cnccn2)nc2c1OCO2
RP-LC retention time: 631 s

CCOC(=O)c1ccc(NC(=O)N2CCCC2c2cc(CC)no2)cc1 (stereo not drawn)
RP-LC retention time: 856 s

O=C(Nc1cnc(N2CCCC2)nc1)c1cc(F)cc(F)c1
RP-LC retention time: 765 s

CCN(Cc1ccccc1)c1ccc(-c2noc(CN3CCCC(C)C3)n2)cn1 (stereo not drawn)
RP-LC retention time: 792 s

O=C(C1CC(=O)N(c2ccc3c(c2)CCN3C(=O)C2CC2)C1)N1CCOCC1 (stereo not drawn)
RP-LC retention time: 634 s

CCCCCC#CC[C@@H](O)/C=C/C=C/C=C\[C@@H](O)CCCC(=O)O
RP-LC retention time: 991 s

CCNc1cc(C)nc(N2CCN(C(=O)c3ccccc3Cl)CC2)n1
RP-LC retention time: 576 s

COc1ccc2[nH]cc(CCNC(=O)c3cccc(NC(=O)c4nnc(CC(C)C)s4)c3)c2c1
RP-LC retention time: 938 s

CCC(C)C(NC(=O)c1ccccn1)C(=O)Nc1nc2ccccc2[nH]1 (stereo not drawn)
RP-LC retention time: 715 s

CCc1ccc(S(=O)(=O)N(C)CC2CCOCC2)cc1
RP-LC retention time: 911 s

COc1ccc(-c2cc(C(=O)N3CCN(c4ccc(N5CCOCC5)nn4)CC3)[nH]n2)cc1
RP-LC retention time: 625 s

CC(Oc1ccccc1)C(=O)Nc1ccc2c(c1)Sc1ncccc1C(=O)N2C(C)C (stereo not drawn)
RP-LC retention time: 930 s

CC(NC(=O)CCCc1ccccc1)C(=O)N1CCN(c2ccccn2)CC1 (stereo not drawn)
RP-LC retention time: 626 s

CC(C)(C)C(=O)N1CCCC(C(=O)Nc2sc3c(c2C(N)=O)CCCC3)C1 (stereo not drawn)
RP-LC retention time: 861 s

CNC(=O)c1nn(C)c2c1C(C)(C)Cc1cnc(Nc3ccc(N4CCN(C)CC4)cc3)nc1-2
RP-LC retention time: 656 s

Cc1noc(CNC(=O)CSCc2ccccc2)n1
RP-LC retention time: 684 s

CCn1cnc(S(=O)(=O)N2CCCC(C(=O)Nc3ccc(-c4nc5ccccc5[nH]4)cc3)C2)c1 (stereo not drawn)
RP-LC retention time: 633 s

CC(C)OCCCN(CC(=O)N1CCNCC1)C(=O)c1ccc(C(F)(F)F)cc1
RP-LC retention time: 653 s

Cn1cc(C2=CCN(S(=O)(=O)Cc3ccccc3)CC2)c2cccnc21
RP-LC retention time: 898 s

O=C(Nc1ccccc1Cl)C1CCCN(C(=O)Cc2cccc3ccccc23)C1 (stereo not drawn)
RP-LC retention time: 995 s

CC(=O)NCCCOc1ccc([N+](=O)[O-])cc1Cl
RP-LC retention time: 786 s

Cc1ccc(-c2nc(CN3C(=O)C(O)(c4ccccc4)c4ccccc43)c(C)o2)cc1 (stereo not drawn)
RP-LC retention time: 1120 s

O=C(NCCn1nc(-c2ccc(Cl)cc2)ccc1=O)c1csc(-c2ccccc2)n1
RP-LC retention time: 854 s

COC(=O)c1cc(C2CC2)nc2c1c(=O)n(Cc1ccccc1F)c(=O)n2C
RP-LC retention time: 1080 s

Cc1ccc(Nc2nc(-c3ccc(F)cc3F)cs2)nc1
RP-LC retention time: 1070 s

Cc1scc2nc(C(=O)NC3CCCCC3)nc(N(C)C)c12
RP-LC retention time: 652 s

Cc1ccc(-c2nc(-c3ccc4ncn(C(C)C)c4c3)no2)cc1
RP-LC retention time: 857 s

CC(C(=O)N1CCCc2ccccc21)n1nc(-c2ccc3c(c2)OCCO3)ccc1=O (stereo not drawn)
RP-LC retention time: 871 s

O=C(NCCN1CCc2ccccc2C1)c1cn2nc(Cl)ccc2n1
RP-LC retention time: 618 s

COc1ccc(-c2nc(N3CCN(C4CCCCC4)CC3)c3ccccc3n2)cc1
RP-LC retention time: 589 s

Cc1cccc(CNC(=O)c2nnc(-c3ccc(S(=O)(=O)N4CCC(C)CC4)cc3)o2)c1
RP-LC retention time: 1100 s

O=C(NCc1cccc(Br)c1)C1CCCN(c2ccc(=O)n(-c3ccc(F)cc3)n2)C1 (stereo not drawn)
RP-LC retention time: 1050 s

COc1cccc(S(=O)(=O)N2C[C@@H](F)C[C@H]2C(=O)N2CCc3ccccc3C2)c1
RP-LC retention time: 904 s

Cc1ccn2cc(C(=O)NCc3ccccc3Cl)nc2c1
RP-LC retention time: 675 s

CCN(CC)c1nc2cc(C(=O)OC)ccc2c(=O)n1CCc1ccccc1
RP-LC retention time: 1250 s

CCOc1ncccc1CNC(=O)c1cnccn1
RP-LC retention time: 600 s

O=C(O)CCCCCNc1nc(-c2ccccc2)nc2ccccc12
RP-LC retention time: 623 s

CCc1ccc(S(=O)(=O)N2CCC3(CC2)C(=O)N(CC)c2ccccc23)cc1
RP-LC retention time: 1140 s

C=CCN1CCN(C(=O)[C@@H]2[C@H](c3cc(OC)c(OC)c(OC)c3)c3cc4c(cc3[C@H](O)[C@H]2CO)OCO4)CC1
RP-LC retention time: 604 s

CCc1ccc(C2=C(C)C(N3CCC(C(=O)NCCCN4CCCC4)CC3)=NS2(=O)=O)cc1
RP-LC retention time: 604 s

Cc1ccc(-c2cc3c(N4CCC(C(=O)NC5CCCC5)CC4)nccn3n2)c(C)c1
RP-LC retention time: 849 s

Cc1ccc(NC(=O)N2CCc3[nH]cnc3C2c2ccncc2)cc1Cl (stereo not drawn)
RP-LC retention time: 585 s

COCC1CN(S(=O)(=O)c2ccc(F)c(C)c2)CC12CCNCC2 (stereo not drawn)
RP-LC retention time: 636 s

Cc1noc(C)c1S(=O)(=O)N1CCC2(CC1)CC(OCc1ccccc1)CCO2 (stereo not drawn)
RP-LC retention time: 1070 s

Cc1nc(-c2cc3cccc(C)c3nc2N2CCN(C)CC2)no1
RP-LC retention time: 665 s

CCNC(=O)N1CC=C(C(=O)Nc2cccc(F)c2)CC1
RP-LC retention time: 673 s

O=C1COc2ccc(Cl)cc2N1Cc1nc(-c2ccc(N3CCOCC3)cc2)no1
RP-LC retention time: 1000 s

O=S(=O)(c1ccc(-c2nnc(C3CCC3)o2)o1)N1CCN(C2CCCCC2)CC1
RP-LC retention time: 690 s

Cn1nc(C2CC2)nc1C1CN(C(=O)Cc2ccc(S(C)(=O)=O)cc2)C1
RP-LC retention time: 611 s

O=C(Nc1ccccc1)N1CCC(N2CC(OCC3CC3)C23CCOCC3)CC1 (stereo not drawn)
RP-LC retention time: 635 s

Cc1cc(C#N)cc(C)c1Oc1nc(Nc2ccc(C#N)cc2)nc(N)c1Br
RP-LC retention time: 1100 s

CNC(=O)c1ccsc1NC(=O)c1coc2ccccc2c1=O
RP-LC retention time: 709 s

CC1CN=C2C(N3CCN(C(=O)c4ccc(C#N)cc4)CC3)=NC=CN21 (stereo not drawn)
RP-LC retention time: 678 s

CCOC(=O)c1ccc(Nc2ncccc2S(N)(=O)=O)cc1
RP-LC retention time: 841 s

O=C(CSc1nnc(Cc2ccccc2)o1)Nc1nc(-c2ccccc2)cs1
RP-LC retention time: 936 s

FC(F)(F)c1nnc2c(Sc3ccccc3)nc3ccc(Cl)cc3n12
RP-LC retention time: 1190 s

CCc1cc(C(=O)N2CCCC2c2cccc(F)c2)no1 (stereo not drawn)
RP-LC retention time: 944 s

O=C(Cn1nc2c(N3CCCCCC3)nccn2c1=O)NCc1cc(F)cc(F)c1
RP-LC retention time: 744 s

Cc1ccc(NC(=O)C2CC(=O)N(CCc3c[nH]c4ccc(C)cc34)C2)c(C)c1 (stereo not drawn)
RP-LC retention time: 842 s
